Here are results for three compounds from US6436956B1, “Useful form of anhydrous paroxetine hydrochloride” (Brantford Chemicals Inc., priority 1996, dated 2002).

Structures can show the parent of a compound that is named as a salt. Where two headings read alike, the source gives them in different places.

A short description of series [1]: bulk density and tapped density of the solid. It counts as physicochemical.
Series [2] is described as follows: hygroscopicity / moisture uptake on exposure to open air. It counts as physicochemical.
A short description of series [3]: solid-form stability, conversion to the hemihydrate polymorph (DSC maximum of 143° C.). It counts as physicochemical.
The conditions of series [4]: prior-art form, from literature; cited from earlier work.
The conditions of series [5]: prior-art form, purported; cited from earlier work.
The mark [6] stands for this setting: Form IV as described in summary (material of Example 2).
[7] abbreviates: material of Example 5 (methanol solution evaporated to foam, dried, pulverized).

`Cl.Fc1ccc([C@@H]2CCNC[C@H]2COc2ccc3c(c2)OCO3)cc1` [Form IV, paroxetine hydrochloride (anhydrous)]: the bulk density result was “exceeding 0.6 g/mL” in series [1] (setting [6]) and “exceeding 0.43 g/mL” in series [1] (setting [7]). Also, the tapped density entry in series [1] (setting [6]) was “exceeding 0.9 g/mL”; in series [1] (setting [7]) it was > 0.58 g/mL. The hygroscopic nature result in series [2] is on record as “substantially non-hygroscopic”. Besides, the moisture taken on in series [2] (exposed to open air for three days, ca. 50% relative humidity) is reported as ≤ 1.5 % by weight. In series [3], the stability entry was “very stable”. Further, in series [3] (even in humid environments, DSC maximum of 143° C. as indicator), the “rate of conversion to the hemihydrate polymorph” value is “negligible rate”.

For the compound `Fc1ccc([C@@H]2CCNC[C@H]2COc2ccc3c(c2)OCO3)cc1` [anhydrous form, paroxetine hydrochloride], the hygroscopic nature entry in series [4] is recorded as “hygroscopic”.

Consider `Fc1ccc([C@@H]2CCNC[C@H]2COc2ccc3c(c2)OCO3)cc1` [hemihydrate form, paroxetine hydrochloride hemihydrate], for which the stability entry in series [5] is reported as “purportedly stable”.
